Results taken from patent US7446102B2, “Antibacterial amide macrocycles IV” (priority 2004, dated 2008).
Where a name gives a salt, the structure may show the parent alone.

System: S. aureus 133
Experiment: Determination of the minimum inhibitory concentration (MIC), S. aureus 133
Assay type: cell-based
Conditions: Staphylococcus aureus, 133, read-out: MIC S. aureus 133
Protocol: Determination of the Minimum Inhibitory Concentration (MIC)
The minimum inhibitory concentration (MIC) is the minimum concentration of an antibiotic with which the growth of a test microbe is inhibited over 18-24 h. The inhibitor concentration can in these cases be determined by standard microbiological methods (see, for example, The National Committee for Clinical Laboratory Standards. Methods for dilution antimicrobial susceptibility tests for bacteria that grow aerobically; approved standard-fifth edition. NCCLS document M7-A5 [ISBN 1-56238-394-9]. NCCLS, 940 West Valley Road, Suite 1400, Wayne, Pa. 19087-1898 USA, 2000). The MIC of the compounds of the invention is determined in the liquid dilution test on the 96-well microtitre plate scale. The bacterial microbes are cultivated in a minimal medium (18.5 mM Na2HPO4, 5.7 mM KH2PO4, 9.3 mM NH4Cl, 2.8 mM MgSO4, 17.1 mM NaCl, 0.033 μg/ml thiamine hydrochloride, 1.2 μg/ml nicotinic acid, 0.003 μg/ml biotin, 1% glucose, 25 μg/ml of each proteinogenic amino acid with the exception of phenylalanine; [H.-P. Kroll; unpublished]) with the addition of 0.4% BH broth (test medium). In the case of Enterococcus facium L4001, heat-inactivated fetal calf serum (FCS; GibcoBRL, Germany) is added to the test medium in a final concentration of 10%. Overnight cultures of the test microbes are diluted to an OD578 of 0.001 (to 0.01 in the case of enterococci) in fresh test medium, and incubated 1:1 with dilutions of the test substances (1:2 dilution steps) in test medium (200 μl final volume). The cultures are incubated at 37° C. for 18-24 hours; enterococci in the presence of 5% CO2.
The lowest substance concentration in each case at which no visible bacterial growth occurred any more is defined as the MIC.
Alternative Method for Determining the Minimum Inhibitory Concentration (MIC)
The minimum inhibitory concentration (MIC) is the minimum concentration of an antibiotic with which the growth of a test microbe is inhibited over 18-24 h. The inhibitor concentration can in these cases be determined by standard microbiological methods with modified medium in an agar dilution test (see, for example, The National Committee for Clinical Laboratory Standards. Methods for dilution antimicrobial susceptibility tests for bacteria that grow aerobically; approved standard-fifth edition. NCCLS document M7-A5 [ISBN 1-56238-394-9]. NCCLS, 940 West Valley Road, Suite 1400, Wayne, Pa. 19087-1898 USA, 2000). The bacterial microbes are cultivated on 1.5% agar plates which contain 20% defibrinated horse blood. The test microbes, which are incubated overnight on Columbia blood agar plates (Becton-Dickinson), are diluted in PBS, adjusted to a microbe count of about […] and placed dropwise (1-3 μl) on test plates. The test substances comprise different dilutions of the test substances (1:2 dilution steps). The cultures are incubated at 37° C. in the presence of 5% CO2 for 18-24 hours.
The lowest substance concentration in each case at which no visible bacterial growth occurred any more is defined as the MIC and is reported in μg/ml.

NC[C@H](O)C[C@@H]1NC(=O)[C@@H](N)Cc2cc(ccc2O)-c2ccc(O)c(c2)C[C@@H](C(=O)O)NC1=O [Example 20A, 14(S)-Amino-11(S)-(3-amino-2(R)-hydroxypropyl)-5,17-dihydroxy-10,13-dioxo-9,12-diazatricyclo[14.3.1.1^2,6]henicosa-1(19),2,4,6(21),16(20),17-hexaene-8(S)-carboxylic acid dihydrochloride, reference compound]
MIC: < 0.03 µg/mL
